{
  "source": "paper PMC6010102",
  "about": "“N-thioalkylcarbazoles derivatives as new anti-proliferative agents: synthesis, characterisation and molecular mechanism evaluation” (Journal of Enzyme Inhibition and Medicinal Chemistry, 2018)",
  "system": "Parp-1",
  "test": "Parp-1 cleavage immunoblot in HeLa cells",
  "assay_type": "cell-based, human",
  "settings": "10 µM, 24, 48 and 72 h, western blot",
  "description": "Cells were serum deprived for 24 h, treated for 24, 48 and 72 h with the compound to be tested. At the end, cells were rinsed twice with ice cold PBS and immediately lysed in lysis buffer (50 mM Tris-HCl, pH 7, 5–8; 150 mM NaCl, 1% Igepal CA-630; 0.1% SDS; 0.5% sodium deoxycholate) containing 1% sodium orthovanadate and 1% phenylmethylsulphonyl fluoride (PMSF). Cell lysates were cleared by centrifugation at 14,000 g for 10 min at 4 °C. Protein concentrations were determined using the Bradford protein assay[40] (Bio-Rad Laboratories, Milan, Italy) according to the directions from the manufacturer. Equal amounts of cell extracts (about 20 µg) were resolved under denaturing conditions by electrophoresis in 10% polyacrylamide gels containing SDS (SDS-PAGE) and transferred to nitrocellulose membranes by electroblotting (GE Healthcare, Piscataway, NJ). […] After incubation with the appropriate secondary antibody (VWR International PBI, MI, Italy) for 1 h at room temperature, the proteins of interest were detected on the membranes by using enhanced chemiluminescence (Amersham ECL Prime Western Blotting Detection Reagent, GE Healthcare, Piscataway, NJ).",
  "data": [
    {"molecule": "Cc1ccc(C)c2c1c1cc(Br)ccc1n2CCCCCCCS", "note": "[5c, 7-(6-Bromo-1,4-dimethyl-9H-carbazol-9-yl)-heptane-1-thiol]", "values": [
      {"measurement": "Parp-1 cleavage (about 89 KDa form)", "result": "presence of the cleaved form of Parp-1"}
    ]}
  ]
}
